Test: in vitro
Settings: human, hela cells, % viability

Point of comparison: `Cc1c(-c2cc(C(=O)NC(C)C3CC4CCC3C4)no2)cnn1C` (stereo not drawn) [CBK281653], viability at 28.5 h, 10 µM 91.3%. Against it:
- CCCC/C=C/c1nccnc1NCCc1ccncc1 [CBK037370] — higher, 99.9%
- O=C(c1nccc2ccccc12)N1CCN(Cc2ccccc2)CC1 [CBK200176] — higher, 98%
- CCc1c(Cc2[nH]c(C)c(C(C)=O)c2C)[nH]c(C(=O)O)c1C [CBK286717] — the same, 91.3%
- O=c1[nH]nc2c(S(=O)(=O)N3CCCCC3)cccn12 [CBK288450] — lower, 74.9%
- CN1CCN(C(=S)SCC(=O)O)CC1 [CBK261549C] — higher, 92.8%
- CCN(CC)C(=O)Cc1cc(C(=O)O)c2ccccc2n1 [CBK286942] — higher, 104%
- Fc1cccc(-c2cncc(NCCc3c[nH]c4ccccc34)n2)c1 [CBK065288] — higher, 94.7%
- O=C(NCc1ccc(Cl)cc1)N1CCN(CCc2ccccc2)CC1 [CBK158922] — lower, 90.7%
- CCOC(=O)c1nnsc1Sc1ccc(C)cc1 [CBK018867] — lower, 89.6%
- O=C1NC(=O)C(CC(=O)N2CCC3(CCN(C(=O)Cc4c[nH]c5ccccc45)C3)C2)N1 (stereo not drawn) [CBK131436] — higher, 92.8%
- c1ccc(CNc2nc(-c3ccco3)cn3ccnc23)cc1 [CBK037955] — lower, 90.6%
- Cc1cccc2c(C(=O)OCC(=O)c3ccc([N+](=O)[O-])cc3)cc(-c3ccc(Cl)cc3)nc12 [CBK264088] — higher, 94.5%
- O=C1OC(c2ccccc2)=C/C1=C1/C(=O)Nc2ccccc21 [CBK115375] — higher, 102%
- CCC(C(=O)Nc1nccs1)N(C)Cc1c(C)nn(C(C)C)c1C (stereo not drawn) [CBK307402] — higher, 103%
- Cc1cc2c(cc1Br)NC(=O)/C2=N\O [CBK288453] — lower, 56%
- c1coc(-c2cc(NC3CCCCC3)ncn2)c1 [CBK090901] — lower, 91.2%
- Cn1c(=O)c2[nH]c(N3CCCNCC3)nc2n(C)c1=O [CBK270030] — higher, 97%
- CN1CCN(CCCNC(=O)c2ccc(-c3ccoc3)nc2)CC1 [CBK156257] — higher, 93.3%
- Cc1nc2ccc(C(=O)NCCN3CCc4ccccc43)cc2[nH]1 [CBK283280] — higher, 94.2%
- O=C1CC(N2CCN(Cc3ccc4c(c3)OCO4)CC2)C(=O)N1CCc1ccccc1 (stereo not drawn) [CBK074541] — higher, 93.7%
- COc1cc(CNCc2cccnc2)cc(Cl)c1OCc1cccs1 [CBK270026C] — higher, 96.2%
- O=C(C1CC1)N1C[C@H]2CCCN(S(=O)(=O)c3cccs3)[C@H]2C1 [CBK282255] — higher, 105%
- CNC(=O)C(NC(=S)NC(=O)c1ccc(F)cc1)C(C)(C)C (stereo not drawn) [CBK021945] — higher, 109%
- O=C(O)CNS(=O)(=O)c1ccc(F)cc1 [CBK034464] — higher, 122%
- CN1CCC(O)(Cn2cnc3cc(-c4ccc(F)cc4)sc3c2=O)CC1 [CBK307434] — higher, 101%
- Cc1[nH]c(=O)[nH]c(=O)c1CC(=O)N1Cc2cc(Cl)ccc2OC2(CCOCC2)C1 [CBK286341] — higher, 93%
- Cc1[nH]c2c(C)cccc2c1CC(=O)NC1CCCN(C)C1 (stereo not drawn) [CBK282485] — lower, 74.1%
- O=P(O)(CCc1ccncc1)CN1CCCCC1 [CBK262323] — higher, 104%
- Cc1ccc(NC(=O)c2ccccc2NS(=O)(=O)c2cccc(C(=O)O)c2)cc1 [CBK296695] — higher, 122%
- Clc1ccc(COc2ccc(/C=N/Nc3nc(N4CCOCC4)nc(N4CCOCC4)n3)cc2)c(Cl)c1 [CBK262061] — higher, 103%
- O=C(NCCN1CCCC1)c1cnc2cc(C(F)(F)F)ccc2c1O [CBK107426] — higher, 104%
- CN1CCN(c2cc(N3CCN(C(=O)c4ccc(F)cc4F)CC3)c([N+](=O)[O-])cc2F)CC1 [CBK265280] — higher, 95.1%
- O=C(O)CCSCc1ccc([N+](=O)[O-])cc1 [CBK262359] — higher, 103%
- COc1ccc(Oc2cncc(OC3CCN(CC(N)=O)C3)n2)cc1OC (stereo not drawn) [CBK084402] — higher, 93.8%
- CSc1nc(O)c(C(c2ccc(C(=O)O)cc2)c2c(O)nc(SC)nc2O)c(O)n1 [CBK265288] — higher, 94.8%
- OC[C@]1(c2ccccc2)CC[C@H](N2CCCC2)CC1 [CBK016010] — lower, 85.5%
- Cc1ccc(S(=O)(=O)Nc2ccccc2C(N)=O)cc1 [CBK056893] — lower, 76%
- CCc1c(C)sc(NC(=O)C2CCC2)c1C(=O)NCc1cccnc1 [CBK307414] — higher, 115%
- C=CCOc1cccn2c(N(C=O)Cc3ccccc3)c(CC)nc12 [CBK147827] — higher, 92.2%
- CCn1ccnc1CN1CCCC(CCc2ccccc2F)C1 (stereo not drawn) [CBK307173] — higher, 99.3%
- OCc1nnc2c3ccccc3c(-c3ccccc3)nn12 [CBK269927] — higher, 94.2%
- CC(C)[C@@H](CO)NC(=O)c1cnc(-c2cccc(C(F)(F)F)c2)c(-c2cccnc2)c1 [CBK037520] — higher, 112%
- CC(NC(=O)Cc1ccccc1F)c1nc2cccnc2n1C(C)C (stereo not drawn) [CBK283829] — lower, 90.8%
- Cc1cc2c(o1)CCc1sc(N(C)C(=O)C3CC(=O)N(C)C3)nc1-2 (stereo not drawn) [CBK283980] — lower, 75.6%
- O=C(CN1CCCCC1)Nc1ccc(NC(=O)CN2CCCCC2)cc1 [CBK265421] — lower, 86.3%
- COc1nccnc1N1CCN(CCCn2c(=O)[nH]c3ccccc32)CC1 [CBK084226] — higher, 95.8%
- CSc1cccc(CN(C)C(=O)c2cc(C#N)c(=O)[nH]c2C)c1 [CBK306839] — higher, 93%
- CSCCCNC(=O)N1CCN(c2ccccc2)CC1 [CBK155170] — higher, 96.5%
- COC(=O)c1c(NC(=O)CC2Nc3ccccc3NC2=O)sc2c1CCC2 (stereo not drawn) [CBK269307A] — higher, 93.7%
- COc1ccc(CCNC(=S)NN2CCN(C)CC2)cc1OC [CBK266884] — higher, 93.2%
- CC(C)(C)OC(=O)N1CCC[C@]2(CCC(=O)N2)[C@H]1c1cccc(F)c1 [CBK283463] — higher, 96.7%
- N#Cc1cnn2c(C(F)(F)F)cc(C(F)(F)F)nc12 [CBK014064] — higher, 93.5%
- COc1ccc(/C=C(\C)C(=O)Nc2cccnc2N2CCNCC2)cc1OC [CBK034124T] — lower, 88.3%
- O=C(c1cnc2cc(Cl)ccc2c1O)N1CCN(c2ncccn2)CC1 [CBK107358] — higher, 108%
- COc1ccc(-c2noc(CSc3nc4sc(C)c(C)c4c(=O)n3-c3ccccc3)n2)cc1 [CBK268264] — higher, 100%
- Cc1ncsc1C(=O)N1CCC[C@H](C(=O)c2cccs2)C1 [CBK284260] — lower, 80.2%
- Cc1cc(NC(=O)C(=O)NC(C)c2ccccc2)ccc1Br (stereo not drawn) [CBK267084] — higher, 96.3%
- COCCNC(=O)c1cc2n(n1)C(C(F)(F)F)CC(c1ccccc1)N2 (stereo not drawn) [CBK307610] — higher, 114%
- O=c1[nH]nc2c(SCc3ccccc3)nccn12 [CBK288440] — lower, 90.5%
- O=C(c1nccs1)C1CCN(C(=O)c2cccs2)CC1 [CBK284159] — higher, 106%
- c1ccc2c(c1)nc(-c1cscn1)n2Cc1ccc(-c2nnn[nH]2)cc1 [CBK266979] — higher, 96.6%
- COc1ccnc(N2CCCN(CCCC#N)CC2)n1 [CBK084124] — lower, 88.4%
- CCNC(=O)c1ccccc1NC(=O)C(C)Oc1ccccc1 (stereo not drawn) [CBK269933] — lower, 85.8%
- O=C(c1nccs1)C1CCN(C(=O)Cc2ccccc2Cl)CC1 [CBK284162] — lower, 87.4%

Same assay, conditions: human, hela cells, % viability, bulk resorufin, single well

Compound `COc1ccccc1CCNCc1ccccc1Br` [CBK015149] has a viability at 28.5 h, 10 µM of 87%.
